Results: patent publication EP0058015A2, “Treatment of infections” (BEECHAM GROUP PLC, priority 1981, dated 1982)
Several values for one entry are separate records, joined by “and”; a condition that tells them apart may be missing. Equal entries are not always repeated.

How the values were obtained:
S. aureus = assay: Experimental mouse mastitis: intramammary antibiotic therapy 4 h after S. aureus inoculation, viable bacterial count per gland 18 h later; type: in vivo; conditions: for 22 h bacterial counts (log10 cfu/gland) (18 h after treatment), x̄: group mean of five mice; for 22 h bacterial counts (log10 cfu/gland) (18 h after treatment): individual mice, intramammary, 4 h after infection
Description: Lactating mice of the Compton white strain were used 4-7 days after parturition. The mice were anaesthetised with ether and c.10^6 cfu S. aureus were inoculated via the teat into the fourth mammary gland on each side (R4 and L4) by the method described by Anderson [Zentralblatt fur Bakteriologie, Parasitenkunde, Infektionskrankheiten und Hygiene (Abteilung 1) Suppl. 5 783-790].
4 Hours later, the mice were divided into four groups and each group received inoculations into R4 and L4 of either cloxacillin, rifampicin, cloxacillin and rifampicin, or saline. After a further 18 hours, the mice were killed. From each mouse, L4 was removed and homogenised in a Griffith's tube with 5 ml sterile saline, and a total viable bacterial count was determined using ox blood agar plates pretreated with S-lactamase.
The log10 bacterial viable counts per gland found after antibiotic (or saline) therapy in each experiment were examined by analysis of variance. Differences between each pair of treatments were then compared for significance in Student's 't' tests, using the value of the.mean square for error obtained in the analysis of variance. Antibiotic residues. Each gland homogenate was also assayed for antibiotic content using an agar well diffusion method with penassay seed agar (Antibiotic medium 1, Difco Labs., Detroit) and Sarcina lutea as the test organism.
Similar treatment to that described above was carried out on mice, in which cloxacillin was replaced by flucloxacillin.
Antibiotics inoculated into mammary glands 4 h after infection at a dose of 1 mg cloxacillin or […] rifampici per gland, or both.

bovine mastitis = conditions: recent reports (Poutrel 1978; Postle et al. 1979); cited from earlier work
[1] = tested on: staphylococcal mastitis infections; assay: Bovine mastitis: intramammary infusion in lactating cows, clinical and bacteriological response at 4 and 7 days after treatment; type: in vivo, staphylococci
Description: Twenty one staphylococcal mastitis infections were treated as follows:
Ten infections treated with 3 x 12 hr infusions of a combination of 300 mg Rifampicin and 200 mg Cloxacillin.
Eleven infections treated with 3 x 12 hr infusions of 200 mg Cloxacillin.
The treatment was carried out by intramammary infusion in lactating cows, and the clinical and bacteriological response recorded at 4 and 7 days after treatment.

[2] = lactating cows, 3 x 12 hr infusions of 300 mg Rifampicin and 200 mg Cloxacillin, or of 200 mg Cloxacillin

## Cc1onc(-c2c(F)cccc2Cl)c1C(=O)N[C@@H]1C(=O)N2[C@@H]1SC(C)(C)[C@@H]2C(=O)O [Fluclox, flucloxacillin]
S. aureus; Fluclox 1 mg per gland
  22 h bacterial counts (log10 cfu/gland) (18 h after treatment), x̄: 4.403 log10 cfu/gland
  22 h bacterial counts (log10 cfu/gland) (18 h after treatment): 4.243 log10 cfu/gland and 4.796 log10 cfu/gland and 4.158 log10 cfu/gland and 4.340 log10 cfu/gland and 4.477 log10 cfu/gland

## CO[C@H]1/C=C/O[C@@]2(C)Oc3c(C)c([O-])c4c(O)c(cc(O)c4c3C2=O)NC(=O)/C(C)=C\C=C\[C@H](C)[C@H](O)[C@@H](C)[C@@H](O)[C@@H](C)[C@H](OC(C)=O)[C@@H]1C.[Na+] [rifamycin-S.V.]
Bovine mastitis
  effectiveness of therapy in bovine mastitis: less effective than penicillin based preparations

## CO[C@H]1/C=C/O[C@@]2(C)Oc3c(C)c(O)c4c(O)c(c(/C=N/N5CCN(C)CC5)c(O)c4c3C2=O)NC(=O)/C(C)=C\C=C\[C@H](C)[C@H](O)[C@@H](C)[C@@H](O)[C@@H](C)[C@H](OC(C)=O)[C@@H]1C [Rifampicin, rifampicin]
S. aureus; Rifampicin 25 µg per gland
  22 h bacterial counts (log10 cfu/gland) (18 h after treatment), x̄: 4.837 log10 cfu/gland
  22 h bacterial counts (log10 cfu/gland) (18 h after treatment): 5.694 log10 cfu/gland and 4.581 log10 cfu/gland and 5.536 log10 cfu/gland and 4.258 log10 cfu/gland and 4.118 log10 cfu/gland

## Cc1onc(-c2ccccc2Cl)c1C(=O)N[C@@H]1C(=O)N2[C@@H]1SC(C)(C)[C@@H]2C(=O)O [Cloxacillin, cloxacillin]
[1]; four days after treatment, eight out of eleven raised before
  quarters with raised cell counts: five
[1]; four days after treatment, eleven infections treated
  quarters yielding staphylococci: five
[1]; [2]
  Proportion of quarters cured four days after treatment: 6 out of 11
  Proportion of quarters cured seven days after treatment: 5 out of 11
[1]; seven days after treatment, combination ten quarters, cloxacillin alone eleven
  quarters yielding staphylococci: six
S. aureus; M60 S. aureus, cloxacillin/rifampicin experiment, 1 mg cloxacillin or rifampici per gland, or both, 18 h after therapy, P<0.01
  mean viable bacterial counts per gland, comparison between groups: reduced bacterial counts to a significantly greater extend than rifampicin treatment
